Experimental findings from PubChem BioAssay (NCI) are described below.

Values joined by “and” are separate entries in the source; they are usually repeats but may differ in a detail not shown here. Equal values may be shown once.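 1) Cells in 96-well plates. 2) Compound, 48 h, 5 concentrations. 3) Linear interpolation between surrounding doses. 4) Unreached endpoint = highest concentration. GI50 marks 50% less growth. TGI: concentration producing complete growth inhibition.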

Among the test systems are DMS 114 small cell lung; DMS 273 small cell lung; HT29 colon; KM20L2 colon; MALME-3M melanoma; NCI-H460 lung; NCI-H522 lung; U251 CNS; XF 498 CNS; SNB-78 CNS.
Common to all, as to experiment: NCI anticancer screen, dose series, 48 h

Regarding `c1ccc2c(NCCCCCCCCNc3c4ccccc4nc4ccccc34)c3ccccc3nc2c1`, the TGI was determined as 2.42 µM in the test on DMS 114 small cell lung; 1.26 µM with DMS 273 small cell lung; 1.57 µM in the test with HT29 colon; 2.55 µM with KM20L2 colon; 2.63 µM in the test on MALME-3M melanoma; 1.33 µM with NCI-H460 lung. The figures for the TGI in the test on NCI-H522 lung, with U251 CNS and with XF 498 CNS were 1.88 µM, 2.09 µM and 2.25 µM, respectively.

Turning to `CCCN(CCCCC(NC(C)=O)C(=O)NCc1ccccc1)C(=O)NC` (configuration not stated), the TGI with DMS 114 small cell lung, with DMS 273 small cell lung, with HT29 colon, with KM20L2 colon, in the test on MALME-3M melanoma and in the test on NCI-H460 lung was above 100 µM each time. Besides, the TGI in the test with NCI-H522 lung, in the test on SNB-78 CNS, in the test with U251 CNS and in the test with XF 498 CNS was above 100 µM throughout.

Regarding `c1cc2c(cnc3cscc32)s1`, the TGI in the test with DMS 114 small cell lung, with DMS 273 small cell lung, in the test with HT29 colon, in the test with MALME-3M melanoma, in the test on NCI-H460 lung and in the test with NCI-H522 lung was above 100 µM each time. Besides, the TGI in the test on SNB-78 CNS, with U251 CNS and in the test on XF 498 CNS was above 100 µM throughout.

For the compound `O=C1c2cccc3cc([N+](=O)[O-])cc(c23)C(=O)N1CCCN1CCN(CCCN2C(=O)c3cccc4cc([N+](=O)[O-])cc(c34)C2=O)CC1`, the TGI was above 100 µM with HT29 colon; above 100 µM with KM20L2 colon; 25.3 µM in the test on MALME-3M melanoma; above 100 µM with NCI-H460 lung; 12.9 µM in the test with SNB-78 CNS; 19.3 µM with U251 CNS. The same compound displayed a TGI in the test with XF 498 CNS of 4.06 µM.

For `COC(=O)/C(=N/NC(C)(C)C)C(C(=O)C=C(C)C)C(=O)C(=O)Nc1ccc(Cl)cc1C` (configuration not stated), the TGI in the test with DMS 114 small cell lung, with HT29 colon, in the test with KM20L2 colon, in the test on MALME-3M melanoma, in the test with NCI-H460 lung and in the test on NCI-H522 lung was above 100 µM in each case. For the same compound, the TGI in the test with U251 CNS and in the test on XF 498 CNS was above 100 µM in each case.

Regarding `CC(O)C(NC(=O)C(CS)NC(=O)C(CO)NC(=O)C(CCCCN)NC(=O)C(Cc1c[nH]c2ccccc12)NC(=O)C(Cc1ccc(O)cc1)NC(=O)C(CS)NC(=O)C(N)Cc1ccccc1)C(N)=O` (configuration not stated), the TGI in the test on DMS 114 small cell lung was 87.9 µM; in the test on DMS 273 small cell lung, 49.4 µM; in the test with HT29 colon, > 25 µM and 61.4 µM; in the test on KM20L2 colon it was 55.8 µM; with MALME-3M melanoma, above 25 µM; in the test with NCI-H460 lung it was > 25 µM and 53.8 µM. The TGI was above 25 µM in the test on NCI-H522 lung; 96 µM with SNB-78 CNS; > 25 µM and 63.1 µM with U251 CNS; 53.8 µM in the test with XF 498 CNS.

Turning to `c1c[nH]c(Cc2ncc(Cc3cnc[nH]3)[nH]2)n1`, the TGI is 58.6 µM in the test with DMS 114 small cell lung; 67.8 µM in the test with DMS 273 small cell lung; above 100 µM in the test with HT29 colon; above 100 µM in the test with KM20L2 colon; above 100 µM in the test with MALME-3M melanoma; 96.2 µM in the test on NCI-H460 lung. For the same compound, the TGI in the test with NCI-H522 lung, in the test on U251 CNS and with XF 498 CNS was above 100 µM each time.

For `CCOC(=O)/C=C(/CN1C(=O)c2ccccc2C1=O)c1ccccc1`, the TGI with DMS 114 small cell lung, with DMS 273 small cell lung, in the test with HT29 colon, in the test on KM20L2 colon, with MALME-3M melanoma and in the test on NCI-H460 lung was above 100 µM throughout. Besides, the TGI in the test on NCI-H522 lung, with SNB-78 CNS, in the test with U251 CNS and with XF 498 CNS was above 100 µM each time.

In the case of `CCCCCCCCCCCC(=O)C1=C(O)C(O)CCC1=O` (configuration not stated), the TGI in the test with DMS 114 small cell lung was determined as 50.5 µM; in the test on DMS 273 small cell lung, 21.3 µM; in the test with HT29 colon it was 30.1 µM; in the test on KM20L2 colon it was 24.9 µM; with MALME-3M melanoma, 32 µM; in the test on NCI-H460 lung it was 44.4 µM. The TGI is 33.1 µM in the test with NCI-H522 lung, 55.8 µM in the test on SNB-78 CNS, 55.5 µM with U251 CNS and 26.4 µM with XF 498 CNS.

For the compound `[Cl][Sn]([c]1ccccc1)[c]1ccccc1`, the GI50 with DMS 114 small cell lung is 3.47 µM; with DMS 273 small cell lung, 10 µM; in the test on HT29 colon, 9.99 µM; in the test on KM20L2 colon it was 14.9 µM; in the test with MALME-3M melanoma, 2.19 µM; in the test with NCI-H460 lung, 18.3 µM. The GI50 in the test with NCI-H522 lung was 0.352 µM; in the test on SNB-78 CNS, 6.96 µM; in the test on U251 CNS, 10.3 µM; with XF 498 CNS it was 2.68 µM. The TGI stood at 19.4 µM in the test on DMS 114 small cell lung; 34 µM with DMS 273 small cell lung; 24.2 µM in the test with HT29 colon; 30.4 µM with KM20L2 colon; 4.66 µM in the test on MALME-3M melanoma; 38.7 µM in the test on NCI-H460 lung. Besides, the TGI was 1.89 µM in the test with NCI-H522 lung, 31 µM in the test on SNB-78 CNS, 23.2 µM with U251 CNS and 5.22 µM in the test with XF 498 CNS.

In the case of `c1ccc(COc2ccc3[nH]c4c(ncc5[nH]c6ccccc6c54)c3c2)cc1`, the TGI was 38.3 µM in the test on DMS 114 small cell lung; 30.4 µM in the test with DMS 273 small cell lung; 17.8 µM with HT29 colon; 20.4 µM in the test on KM20L2 colon; 18.2 µM with MALME-3M melanoma; 37 µM in the test with NCI-H460 lung. The TGI in the test with NCI-H522 lung amounted to 31.9 µM; in the test on SNB-78 CNS, 40 µM; with U251 CNS, 24.4 µM; in the test on XF 498 CNS, 26.6 µM.

Regarding `CC(C)(C)N=CN1CCC(C(c2ccccc2)c2ccccc2)CC1`, the TGI with DMS 114 small cell lung is above 100 µM; in the test on DMS 273 small cell lung, above 100 µM; in the test with HT29 colon, 56.5 µM; in the test with KM20L2 colon, 32.2 µM; with MALME-3M melanoma it was 35.6 µM; in the test with NCI-H460 lung, above 100 µM. The TGI in the test with SNB-78 CNS, in the test with U251 CNS and in the test with XF 498 CNS was above 100 µM throughout.

In the case of `Cn1nnnc1[N-]Cc1ccccc1.[Au+].c1ccc([PH+](c2ccccc2)c2ccccc2)cc1`, the GI50 was 1.53 µM with DMS 114 small cell lung; 11.1 µM in the test on DMS 273 small cell lung; 5.02 µM in the test on HT29 colon; 8.56 µM in the test on KM20L2 colon; 1.64 µM in the test with MALME-3M melanoma; 19.1 µM in the test on NCI-H460 lung. The GI50 in the test with SNB-78 CNS is 6.86 µM; in the test on U251 CNS, 3.41 µM. Also, the TGI in the test on DMS 114 small cell lung was 4.83 µM; in the test with DMS 273 small cell lung it was above 100 µM; in the test on HT29 colon, 13.3 µM; with KM20L2 colon, 29.8 µM; in the test on MALME-3M melanoma, 3.39 µM; in the test with NCI-H460 lung, 65.7 µM. In addition, the TGI was above 66.9 µM in the test with SNB-78 CNS and 11.8 µM in the test with U251 CNS.
